Biological target: T1, AKAP1 A-kinase anchor protein 1, mitochondrial (Homo sapiens, UniProt Q92667)
T1 construct: Cells were resuspended in cold PBS on ice and sonicated with a probe sonicator to achieve lysis; endogenous in cells
T1 sequence (Q92667 30-903): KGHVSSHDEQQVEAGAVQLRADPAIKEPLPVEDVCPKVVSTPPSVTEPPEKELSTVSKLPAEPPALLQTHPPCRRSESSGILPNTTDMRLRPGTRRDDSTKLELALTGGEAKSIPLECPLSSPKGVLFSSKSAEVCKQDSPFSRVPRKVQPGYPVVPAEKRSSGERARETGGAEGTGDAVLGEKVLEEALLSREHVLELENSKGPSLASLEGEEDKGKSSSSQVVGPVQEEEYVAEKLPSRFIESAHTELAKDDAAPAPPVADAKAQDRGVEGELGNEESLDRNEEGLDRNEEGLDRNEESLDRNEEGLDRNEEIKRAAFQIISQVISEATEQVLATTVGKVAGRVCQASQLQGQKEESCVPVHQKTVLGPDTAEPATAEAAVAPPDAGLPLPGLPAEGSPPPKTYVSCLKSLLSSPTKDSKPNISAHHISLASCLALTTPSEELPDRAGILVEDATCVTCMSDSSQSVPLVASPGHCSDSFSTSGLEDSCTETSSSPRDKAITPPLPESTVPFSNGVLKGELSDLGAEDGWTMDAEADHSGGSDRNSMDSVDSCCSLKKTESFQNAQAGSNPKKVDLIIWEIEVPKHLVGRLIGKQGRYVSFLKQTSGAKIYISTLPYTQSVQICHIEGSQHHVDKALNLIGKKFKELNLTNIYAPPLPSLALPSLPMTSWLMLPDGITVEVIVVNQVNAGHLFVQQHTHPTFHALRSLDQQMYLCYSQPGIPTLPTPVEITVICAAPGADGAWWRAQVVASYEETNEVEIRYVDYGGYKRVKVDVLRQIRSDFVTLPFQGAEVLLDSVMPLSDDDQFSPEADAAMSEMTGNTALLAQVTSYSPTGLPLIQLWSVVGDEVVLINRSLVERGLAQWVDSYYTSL
Experiment: Cysteine liganding, probe competition
Assay type: binding
Method in brief: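 Lysates from probe-sonicated cells in PBS (5 mg/ml proteome) were exposed to compound for 1 hr at 25° C, then labelled with desthiobiotin iodoacetamide probe (10 mM stock) for 1 hr at 25° C. Probe-tagged peptides were streptavidin-enriched after trypsin digestion.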

Row | Compound | Liganded (AKAP1 Res# 376, uniprot Q92667) | 100 ave (uniprot Q92667) | 500 Max (uniprot Q92667) | 500 ave (uniprot Q92667) | 100 Max (uniprot Q92667, in % (unit assumed))
1 | COc1ccc2c(c1)CCCN2C(=O)CCl [KB02] | YES | – | – | – | –
2 | O=C(CCl)Nc1cc(C(F)(F)F)cc(C(F)(F)F)c1 [KBO3] | – | −0.33 | 57.81 | 45.04 | 18.92

From patent publication US20200239530A1, “COMPOUNDS AND METHODS OF MODULATING PROTEIN DEGRADATION” (Vividion Therapeutics, Inc., priority 2017, published 2020)
